In patent publication US20240172756A1, “ORGANOANTIMONY(V) C[…] AND METHODS OF PRODUCTION AND USE THEREOF” (priority 2021, published 2024):

Columns and labels:
Type in all cases: cell-based
Pseudomonas aeruginosa = experiment: MIC in liquid culture, P. aeruginosa; conditions: for MIC, P. aeruginosa: Table 1; for antimicrobial effect: strain PAO1, paper disk and MIC studies
Protocol: (§1) To determine the antimicrobial potential of the two generations (G1—based on SbPh4-core, and G2—based on SbMe3-core) of newly synthesized Sb(V) cyanoximates, several representative compounds were first selected and their antimicrobial properties tested by using disk diffusion assays, The minimal inhibitory concentrations (MIC) of selected compounds were also determined in liquid cultures. Three bacterial and two fungal pathogens were used as target microorganisms. Bacterial pathogens included Gram-negative Pseudomonas aeruginosa and Gram-positive Staphylococcus aureus, representing the ESKAPE group of human pathogens known for their high virulence and antibiotic resistance.
(§2) MIC of the 3rd generation compounds, as well as complete MIC measurements for the 2nd generation Sb(V) compounds, are determined. A dilution assay in a 96-well-plate format, the gold standard for measuring MICS recommended by the Clinical Laboratory Standards Institute (CLSI), is utilized. Prior to plate inoculation, bacterial cultures of P. aeruginosa PAO1, S. aureus NRS70, E. foecium CC17, and E. coli S17 are grown in Mueller Hinton Broth (MHB) to middle log phase as determined by the individual growth curves and diluted to obtain absorbance at 600 nm of 0.1. These normalized cultures are diluted 1:100 using MHB and inoculated into the fresh medium with serially diluted Sb(V) compounds in 96-well plates. The plates are incubated for 24 h at 37° C. For fungal pathogens, cultures of Cryptococcus neoformans strain H99 and Candida albicans strain SC5314 are grown to stationary phase in YPD medium for 18 h at 30° C. Following incubation, fungal cells are centrifuged, washed three times with PBS, and then counted with trypan blue exclusion. Each compound is screened using a microdilution assay with 0.5×10^3 fungal cells in RPMI-MOPS medium at 35° C. for 48 h. Following incubations for bacterial or fungal pathogens, the OD600 is measured using a Biotek Synergy HT microtiter plate reader ([…].). The MIC is defined as the lowest concentration that inhibits growth. An aliquot from the clear wells from the MIC assay is plated on agar to determine minimum bactericidal concentration (MBC) or minimum fungicidal concentration (MFC). Each experiment is based on at least three biological replicates and repeated for consistency. The MIC and MBC for each compound is compared to those obtained for clinically applied antibiotics/antifungals. For bacterial pathogens, the corresponding antibiotics, such as tobramycin (P. aeruginosa), trimethoprim (S. aureus), gentamicin (E. coli) and ampicillin (E. foecium), are used. For fungal pathogens, the data is compared to the antifungal drugs Amphotericin B and Caspofungin for C. neoformans and C. albicans, respectively, by using the CLSI method.
(§3) Two different types of antimicrobial studies were performed: 1) paper disk studies during growth on solid media; and 2) MIC determination during growth in liquid media. […] Antifungal disk assays concluded that Sb(Ph)4 (ECO) was effective against Cryptococcus neoformans and Candida albicans. […] For MIC assays, Sb(Ph)4 (MCO), the Sb(V) cyanoximate, was tested, along with the free cyanoximes H(MCO), H(ECO), and Na[H(ACO)2].
(§4) MIC assays: The MIC assay protocol utilized for determination of the effects of various organoantimony(V) cyanoximate compounds in various bacteria is shown in FIG. 16. Each solubilized in DMSO at 5 mg/ml, starting concentration is 100 μg/ml. Error bars represent standard error of the mean (if none, the values were identical in each experiment). Untested compounds have no bar. Bars reaching 100 μg/ml were not considered to have antifungal activity.

Escherichia coli = experiment: MIC in liquid culture, E. coli; conditions: for MIC, E. coli: Table 1; for antimicrobial effect: strain S17, paper disk and MIC studies
Protocol: as §1, §2, §3, §4

Staphylococcus aureus = experiment: MIC in liquid culture, S. aureus; conditions: for antimicrobial effect: Methicillin-resistant strain NRS70, paper disk and MIC studies; for MIC, S. aureus: Table 1
Protocol: as §1, §2, §3, §4

Cryptococcus neoformans [1] = experiment: MIC assay, C. neoformans; conditions: for MIC, C. neoformans: Table 1
Protocol: (§5) To determine the antifungal properties of the two groups of Sb(V) cyanoximaes, Cryptococcus neoformans and Candida albicans, both of which are deadly human pathogens, were tested.
as §2
(§6) Second, the compounds were dissolved in DMSO to […], and their minimal inhibitory concentration (MIC) was determined against C. neoformans and C. albicans. Starting concentration used was 100 μg/ml, and then diluted 1:2.
as §4

Candida albicans [2] = experiment: MIC assay, C. albicans; conditions: for MIC, C. albicans: Table 1
Protocol: as §5, §2, §6, §4

Cryptococcus neoformans [3] = experiment: Antifungal disk diffusion assay, C. neoformans; conditions: solid compound on paper disk
Protocol: as §5
(§7) First, solid state powder compounds were deposited on paper disks and tested against two fungi: Cryptococcus neoformans and Candia albicans. Each experiment was conducted in triplicate with each compound at each concentration of deposited solid compound. The control was a blank paper (100% cotton disk).
(§8) Disk diffusion assays: No inhibition of Cryptococcus neoformans or Candida albicans for the following organoantimony(V) cyanoximate compounds at any concentration (S, ×2, ×4): H(ACO), H(ECO), H(MCO).

Candida albicans [4] = experiment: Antifungal disk diffusion assay, C. albicans; conditions: solid compound on paper disk
Protocol: as §5, §7, §8

[5] = tested on: Staphylococcus aureus MRSA; experiment: Broth dilution assay, S. aureus MRSA; conditions: multi-drug resistant strain, FIG. 20
Description: As shown in FIGS. 20-21, compounds containing Sb display higher bactericidal activity against Gram positive Staphylococcus aureus (FIG. 20) than Gram negative E. coli (FIG. 21). […] In addition, 25-40% reduction of growth was also observed for Sb(Ph4)Br, Sb(Ph4)ECO, Sb(Ph4)ACO, and Sb(Ph4)TCO against Gram negative E. coli (FIG. 21).

[6] = tested on: bacterial and fungal pathogens; experiment: Antimicrobial activity overall (disk diffusion and MIC tests, strain not specified); conditions: for antimicrobial effect in MIC assays: organism not given
Protocol: as §1, §3

[7] = in DMSO, starting concentration 100 μg/ml, active if MIC below 100 μg/ml

Compound	MIC, P. aeruginosa (Pseudomonas aeruginosa) [µg/mL]	MIC, E. coli (Escherichia coli) [µg/mL]	MIC, S. aureus (Staphylococcus aureus) [µg/mL]	MIC, C. neoformans (Cryptococcus neoformans [1]) [µg/mL]	MIC, C. albicans (Candida albicans [2]) [µg/mL]	antifungal activity / zone of inhibition in disk assay (Cryptococcus neoformans [3])	antifungal activity / zone of inhibition in disk assay (Candida albicans [4])	also measured
N#CC(=N[O][Sb]([c]1ccccc1)([c]1ccccc1)([c]1ccccc1)[c]1ccccc1)C(N)=O [SbPh4ACO]	100	100	100	18.8	15.6	effective	only effective at inhibition of Cryptococcus neoformans	antimicrobial effect (Pseudomonas aeruginosa): significant antimicrobial effect; antimicrobial effect (Escherichia coli): significant antimicrobial effect; antimicrobial effect (Staphylococcus aureus): significant antimicrobial effect; MIC (minimum inhibitory concentrations) [5]: 100 µg/mL; bactericidal activity [5]: significant bactericidal activity
[CH3][Sb]([CH3])([CH3])([O]N=C(C#N)C(=O)N1CCOCC1)[O]N=C(C#N)C(=O)N1CCOCC1 [SbMe3(MCO)2]	50	>200	>200					antimicrobial activity [6]: pronounced antimicrobial activity
CCOC(=O)/C(C#N)=N/O [H(ECO), reference compound]						No inhibition	No inhibition	antimicrobial effect in MIC assays [6]: no antimicrobial effect
[CH3][Sb]([CH3])([CH3])([O]N=C(C#N)C(N)=S)[O]N=C(C#N)C(N)=S [SbMe3(TCO)2]	>200	>200						
CN(C)C(=S)C(C#N)=N[O][Sb]([CH3])([CH3])([CH3])[O]N=C(C#N)C(=S)N(C)C [SbMe3(TDCO)2]	>200	>200						
[Br][Sb]([c]1ccccc1)([c]1ccccc1)([c]1ccccc1)[c]1ccccc1 [SbPh4Br, tetraphenylantimony(V) bromide, reference compound]								bactericidal activity [5]: significant bactericidal activity
CN(C)C(=S)C(C#N)=N[O][Sb]([c]1ccccc1)([c]1ccccc1)([c]1ccccc1)[c]1ccccc1 [SbPh4TDCO]	>200	>200	100	33.3	100	effective	only effective at inhibition of Cryptococcus neoformans	antimicrobial effect (Pseudomonas aeruginosa): essentially no antimicrobial activity; antimicrobial effect (Escherichia coli): essentially no antimicrobial activity; antimicrobial effect (Staphylococcus aureus): significant effects
[CH3][Sb]([CH3])([CH3])([O]N=C(C#N)c1ccc(Cl)cc1Cl)[O]N=C(C#N)c1ccc(Cl)cc1Cl [SbMe3(2,4-ClPhCO)2]	>200	>200		>100	>100			
N#CC(=NO)C(=O)N1CCOCC1 [H(MCO), reference compound]						No inhibition	No inhibition	antimicrobial activity [6]: most antimicrobially active; antimicrobial effect in MIC assays [6]: no antimicrobial effect
[CH3][Sb]([CH3])([CH3])([O]N=C(C#N)c1c(Cl)cccc1Cl)[O]N=C(C#N)c1c(Cl)cccc1Cl [SbMe3(2,6-ClPhCO)2]	>200	50		>100	>100			antimicrobial activity [6]: pronounced antimicrobial activity
[CH3][Sb]([CH3])([CH3])([Br])[Br] [SbMe3Br2, triemethylantimony(V) dibromide, reference compound]	50	150	100	>100	>100			
[CH3][Sb]([CH3])([CH3])([O]N=C(C#N)c1ccccc1Cl)[O]N=C(C#N)c1ccccc1Cl [SbMe3(2-ClPhCO)2]	>200	>200	>200	>100	>100			
CCOC(=O)C(C#N)=N[O][Sb]([CH3])([CH3])([CH3])[O]N=C(C#N)C(=O)OCC [SbMe3(ECO)2]	>200	>200	>200					
N#CC(=N[O][Sb]([c]1ccccc1)([c]1ccccc1)([c]1ccccc1)[c]1ccccc1)C(=O)N1CCOCC1 [SbPh4MCO]	200	>200	100	19.8	32.1			concentration with fungicidal activity (killed C. neoformans) (Cryptococcus neoformans [1]; Example 6): 100 µg/mL; MIC with C. neoformans (Cryptococcus neoformans [1]; Example 6, three independent experiments): 22.5 µg/mL; antifungal activity in MIC assay (Cryptococcus neoformans [1]; [7]): exhibited antifungal activity; antifungal activity in MIC assay (Candida albicans [2]; [7]): exhibited antifungal activity
N#CC(=NO)C(N)=O.N#CC(=N[O-])C(N)=O.[Na+] [Na[H(ACO)2]]								antimicrobial effect in MIC assays [6]: no antimicrobial effect
N#C/C(=N\O)C(N)=O [H(ACO), reference compound]						No inhibition	No inhibition	antimicrobial activity [6]: most antimicrobially active
